Experimental data published in patent US20100267672A1, “NOVEL COMPOUNDS OF REVERSE-TURN MIMETICS, METHOD FOR MANUFACTURING THE SAME AND USE THEREOF” (Choongwae Pharma Corporation, priority 2009, published 2010).

Experiments:
[1] = test system: human AML cell line, MV4-11; test: Anticancer activity in acute myeloid leukemia (AML) animal model; assay type: in vivo, Balb/C nude mice; details: intravenously once a day, five times per week for two weeks, MV4-11 implanted nude mice, Day 12 vs Day 1; for inhibition in vivo at 25 mg/kg: Mus musculus, iv, 288 h, read-out: Tumor growth Inhibition Rate
Experimental: Test materials were prepared in the form of prodrugs to increase the solubility of compounds of interest. A phosphate functional group which may be either a monosodium or disodium form was introduced as a prodrug substituent.
The human AML cell line, MV4-11, was purchased (ATCC, U.S.A.) and cultured at 37° C. under a 5% CO2 condition in Iscove's Modified Dulbecco's Medium (GIBCO, cat# 21056) supplemented with 10% fetal bovine serum (GIBCO, cat# 25030-081). Female Balb/C nude mice (OrientBio, Sungnam-city, Korea), 5-6 weeks old, were acclimated to the breeding room. Using a sterilized syringe, a mixture of 1:1 of MV4-11 cells: matrigel (v/v) was implanted in an amount of 5×10^6/mouse beneath the axilla of each of the mice. When tumor was formed 2 weeks after the implantation, the mice were divided into five (5) groups in such a manner that a minimum deviation with regard to tumor size and body weight was obtained among the groups. The test materials were dissolved in physiological saline and intravenously injected at a dose of 10 ml/kg once a day and five times per week for two weeks (administration days of test materials, D1˜D5, D8˜D12). For a control, only physiological saline was used. The tumor size was determined as calculated by the following equation: Long Axis×Short Axis×Short Axis/2. The Long and Short Axes of the tumor were measured in length using a digital caliper (Mitsutoyo, Japan). The anticancer activity of the test materials was numerated according to the following equation.
Tumor growth Inhibition Rate A (%)=100×[1−(b−a)/(Ref b−Ref a)] […]
a=mean tumor size of drug-administered group on Day 1 b=mean tumor size of drug-administered group on Day 12
Ref a=mean tumor size of the control on Day 1
Ref b=mean tumor size of the control on Day 12
When the mean tumor size of the drug-administered group on Day 12 was smaller than that of just before the administration of the test materials, it is indicated as Regression (>100%).

hERG = molecular target: T1, hERG (Homo sapiens, UniProt Q12809); test: In vitro cardiotoxicity assay: inhibitory activity against hERG (whole-cell patch clamp); assay type: cell-based; details: hERG-transfected HEK293 cells, tail current of outward hERG K+ currents; read-out: Cardiotoxicity (hERG Inhibiting Activity Assay, IC50)
T1 construct: expressed in transfected cells; host or cells: HEK293
Experimental: HEK293 was transfected with hERG (human Ether-à-go-go Related Gene) cDNA for 48 hrs using Lipofectamine 2000 (Invitrogen, USA). The transfected HEK293 cells were cultured in Modified Dulbecco's Medium (MEM, Gibco, 1 L) supplemented with 10% FBS, sodium pyruvate (10 ml), penicillin/streptomycin (10 ml) and Zeocin (100 μg/ml, Invitrogen) at 37° C. under 5% CO2. After being detached from incubation vessels by trypsinization, the HEK293 cells were placed in a chamber for patch clamp recording. A whole-cell patch clamp method was used to record hERG K+ currents in HEK293 cells using the following intra/extracellular solutions.
The membrane potential was depolarized from −80 mV to +20 mV for 1,000 ms in a whole-cell patch clamp mode and then repolarized to −40 mV for 1,000 ms, during which the tail current of outward hERG K+ currents was recorded. In this regard, the concentrations of the compounds that are required for 50% inhibition of the current were represented as IC50.
The risk of cardiotoxicity has been raised in many drugs. Some of them were withdrawn from the market because they caused a sudden death due to the cardiotoxicity thereof. The cardiotoxicity of drugs is associated with the extension of QT intervals on electrocardiograms. Particularly, most of the drugs extending QT intervals are known to inhibit IKr channels (Bernard Fermini and Anthony A. Fossa, Nature Reviews Drug Discovery, 2003, 2, 439-447). […] In this example, the risk of cardiotoxicity was evaluated using human hERG channel-expressing mammal cells, which are internationally recognized as a system (ICH guideline, S7B, Step 4, 12, May, 2005). Although pharmaceutical activity of drug should be taken into consideration, a drug is evaluated as having a low cardiotoxicity risk when IC50 thereof is 10 μM or higher. […] Having higher IC50, compound A1 was evaluated to be safer than compound A, and compounds B1, B2 and B3 than compound B.

[2] = Solubility of monosodium and disodium prodrug forms; assay type: physicochemical; details: aqueous medium; prodrug prepared by adding sodium hydroxide to P2
Experimental: The compounds were prepared in the form of prodrugs to improve the solubility thereof. Phosphate may be introduced as a possible prodrug substituent which can exist as in either monosodiumphosphate or disodiumphosphate form.
(§1) This prodrug was prepared by adding sodium hydroxide to P2, which was synthesized according to Example 9. Both monosodium and disodium forms of the prodrug show a solubility of up to 400 mg/ml. Both forms have advantageous properties as a composition for I.V. injection in that a monosodium form has pH 4.45 and a disodium form has pH of 7.62.

[3] = pH of monosodium and disodium prodrug forms; assay type: physicochemical; details: prodrug form as a composition for I.V. injection
Experimental: as §1
In the graph, the horizontal axis represents the added amounts of sodium hydroxide. In the graph, the first and second points of inflection correspond to the time of production of monosodium and disodium forms, respectively.

T1 sequence (Q12809 whole entry): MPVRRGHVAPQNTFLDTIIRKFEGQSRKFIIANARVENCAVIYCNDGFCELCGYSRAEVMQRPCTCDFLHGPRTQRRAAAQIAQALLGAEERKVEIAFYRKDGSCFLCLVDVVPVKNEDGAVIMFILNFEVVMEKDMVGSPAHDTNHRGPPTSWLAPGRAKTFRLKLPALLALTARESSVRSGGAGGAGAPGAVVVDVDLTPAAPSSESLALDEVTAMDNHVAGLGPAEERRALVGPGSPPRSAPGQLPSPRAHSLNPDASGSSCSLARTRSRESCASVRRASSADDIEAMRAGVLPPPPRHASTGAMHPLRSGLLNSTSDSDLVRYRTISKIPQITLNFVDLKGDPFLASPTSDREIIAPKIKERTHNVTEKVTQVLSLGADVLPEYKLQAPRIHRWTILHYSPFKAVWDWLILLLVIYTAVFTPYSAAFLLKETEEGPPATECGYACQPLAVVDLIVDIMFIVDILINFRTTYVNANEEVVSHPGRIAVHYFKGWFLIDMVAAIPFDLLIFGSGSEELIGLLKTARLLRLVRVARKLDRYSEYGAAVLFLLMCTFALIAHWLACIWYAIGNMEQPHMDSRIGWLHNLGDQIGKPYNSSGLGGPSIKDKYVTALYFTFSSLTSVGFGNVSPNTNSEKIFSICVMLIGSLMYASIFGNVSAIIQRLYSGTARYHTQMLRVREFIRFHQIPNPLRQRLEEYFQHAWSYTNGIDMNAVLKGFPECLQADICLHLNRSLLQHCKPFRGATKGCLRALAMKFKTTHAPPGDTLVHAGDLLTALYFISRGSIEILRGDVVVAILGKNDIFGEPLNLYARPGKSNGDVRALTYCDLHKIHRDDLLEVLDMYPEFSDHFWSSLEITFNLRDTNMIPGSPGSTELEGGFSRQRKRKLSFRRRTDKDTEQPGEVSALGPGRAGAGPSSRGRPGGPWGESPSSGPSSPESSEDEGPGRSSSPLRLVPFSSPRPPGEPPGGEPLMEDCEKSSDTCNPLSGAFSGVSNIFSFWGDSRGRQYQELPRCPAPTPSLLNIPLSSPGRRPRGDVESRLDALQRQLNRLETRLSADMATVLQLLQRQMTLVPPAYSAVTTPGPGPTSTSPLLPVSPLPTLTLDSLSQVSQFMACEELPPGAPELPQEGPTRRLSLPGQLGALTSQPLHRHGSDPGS

SMILES	inhibition in vivo at 25 mg/kg ([1]; dose 25 mg/kg) [%]	IC50 (hERG) [µM]	also measured
Nc1ccn([C@@H]2O[C@H](CO)[C@@H](O)[C@@H]2O)c(=O)n1 [Ara-C, reference compound]	–	–	Tumor growth Inhibition Rate ([1]; dose 25 mg/kg, 25 mg/kg): 66%; Tumor growth Inhibition Rate ([1]; dose 50 mg/kg): 77%
C=CCN1CC(=O)N2[C@@H](Cc3ccc(OP(=O)(O)O)cc3)C(=O)N(Cc3cccc4c(C(=O)CC)cn(C)c34)C[C@@H]2N1C(=O)NCc1ccccc1 [Compound A1]	> 100	80	–
C=CCN1CC(=O)N2[C@@H](Cc3ccc(OP(=O)(O)O)cc3)C(=O)N(Cc3cccc4c(C(C)=O)cn(C)c34)C[C@@H]2N1C(=O)NCc1ccccc1 [Compound A2]	> 100	–	–
C=CCN1CC(=O)N2[C@@H](Cc3ccc(OP(=O)(O)O)cc3)C(=O)N(Cc3cccc4c(C(C)=O)cn(CCC)c34)C[C@@H]2N1C(=O)NCc1ccccc1 [Compound A3]	> 100	–	–
C=CCN1CC(=O)N2[C@@H](Cc3ccc(OP(=O)(O)O)cc3)C(=O)N(Cc3cccc4c(C(C)=O)c[nH]c34)C[C@@H]2N1C(=O)NCc1ccccc1 [Compound A]	61	14	–
C=CCN1CC(=O)N2[C@@H](Cc3ccc(OP(=O)(O)O)cc3)C(=O)N(Cc3cccc4c(C(=O)CC(C)(C)C)cn(CCC)c34)C[C@@H]2N1C(=O)NCc1ccccc1 [Compound B1]	> 100	18	–
C=CCN1CC(=O)N2[C@@H](Cc3ccc(OP(=O)(O)O)cc3)C(=O)N(Cc3cccc4c(C(=O)CC(C)(C)C)cn(C)c34)C[C@@H]2N1C(=O)NCc1ccccc1 [Compound B2]	> 100	25	–
C=CCN1CC(=O)N2[C@@H](Cc3ccc(OP(=O)(O)O)cc3)C(=O)N(Cc3cccc4c(C(=O)CC(C)(C)C)cn(CCCCCC)c34)C[C@@H]2N1C(=O)NCc1ccccc1 [Compound B3]	80	20	–
C=CCN1CC(=O)N2[C@@H](Cc3ccc(OP(=O)(O)O)cc3)C(=O)N(Cc3cccc4c(C(=O)CC(C)(C)C)c[nH]c34)C[C@@H]2N1C(=O)NCc1ccccc1 [Compound B]	49	1.6	–
C=CCN1CC(=O)N2[C@@H](Cc3ccc(OP(=O)(O)O)cc3)C(=O)N(Cc3cccc4c(C(=O)C5CC5)cn(C)c34)C[C@@H]2N1C(=O)NCc1ccccc1 [Compound C1]	> 100	–	–
C=CCN1CC(=O)N2[C@@H](Cc3ccc(OP(=O)(O)O)cc3)C(=O)N(Cc3cccc4c(C(=O)C5CC5)cn(CC)c34)C[C@@H]2N1C(=O)NCc1ccccc1 [Compound C2]	> 100	–	–
C=CCN1CC(=O)N2[C@@H](Cc3ccc(OP(=O)(O)O)cc3)C(=O)N(Cc3cccc4c(C(=O)C5CC5)cn(CCCC)c34)C[C@@H]2N1C(=O)NCc1ccccc1 [Compound C3]	70	–	–
C=CCN1CC(=O)N2[C@@H](Cc3ccc(OP(=O)(O)O)cc3)C(=O)N(Cc3cccc4c(C(=O)C5CC5)c[nH]c34)C[C@@H]2N1C(=O)NCc1ccccc1 [Compound C]	25	–	–
C=CCN1CC(=O)N2[C@@H](Cc3ccc(OP(=O)([O-])[O-])cc3)C(=O)N(Cc3cccc4c(C(C)=O)cn(C)c34)C[C@@H]2N1C(=O)NCc1ccccc1.[Na+].[Na+] [disodium form]	–	–	solubility [2]: ≤ 400 mg/mL; pH [3]: 7.62
C=CCN1CC(=O)N2[C@@H](Cc3ccc(OP(=O)([O-])O)cc3)C(=O)N(Cc3cccc4c(C(C)=O)cn(C)c34)C[C@@H]2N1C(=O)NCc1ccccc1.[Na+] [monosodium form, Sodium 4-(((6S,9AS)-1-(benzylcarbamoyl)-8-((3-acetyl-1-methyl-1H-indol-7-yl)methyl)-2-allyl-octahydro-4,7-dioxo-1H-pyrazino[2,1-C][1,2,4]triazin-6-yl)methyl)phenyl hydrogenphosphate]	–	–	solubility [2]: ≤ 400 mg/mL; pH [3]: 4.45
